Holding throughout (assay type): biochemical, Alcaligenes faecalis
The test system of experiment [1] is LAC1* (purified extracellular laccase). Nature of the experiment: spectrophotometric oxidation. Particulars: optimized conditions (optimum pH for ABTS 5.5), 50-500 μM substrate.
Experiment [2] has the same test system. The experiment can be described thus: spectrophotometric oxidation at […] nm, Lineweaver-Burk. Particulars: pH 8.0, 80 °C, 50-500 μM substrate.
Experiment [3] has the same test system. The experiment can be described thus: spectrophotometric oxidation. Particulars: optimized conditions (optimum pH for guaiacol 8), 50-500 μM substrate.

SMILES strings stand for the structures.

A word on the Km: it is the substrate concentration at which the rate is half of its maximum.

As for `CCn1c(=NN=c2sc3cc(S(=O)(=O)O)ccc3n2CC)sc2cc(S(=O)(=O)O)ccc21` [ABTS], the Km in experiment [1] worked out at 500 µM. Regarding `COc1cccc(OC)c1O` [2,6-DMP], in experiment [2], the Km came out at 480 µM.

Take `COc1ccccc1O` [Guaiacol]: in experiment [3], the Km worked out at 1000 µM.

The values above are taken from paper PMC6933146 (Biotechnology Reports, 2019).
